Measurements: patent US20210371388A1, “Bicyclic Carboxamide with Exocyclic Urea Derivatives as Antivirals for the Treatment of HBV Infection” (Baruch S. Blumberg Institute, priority 2020, published 2021)
pEC50: −log10 of the molar value.

Tested on: HBV replication in AML12HBV10 cells
Test: Antiviral efficacy: HBV DNA in AML12HBV10 cell lysates by dot-blot hybridization
Format: cell-based
Conditions: Hepatitis B virus, AML12HBV10, 48 h, read-out: Antiviral activity (EC50), AML12HBV10 cells, 48 hours treatment, concentration that reduces the amount of HBV DNA by 50%
Protocol: The antiviral efficacy of the compounds of the disclosure, as presented in Table 2, were determined in AML12HBV10 cells. AML12HBV10 is an immortalized murine hepatocyte (AML12)-derived stable cell line that supports robust HBV replication in a tetracycline inducible manner (Xu et al.). The cells were seeded into 96 well plates at a density of 2×10^4 cells per well and cultured in DMEM/F12 media with 10% fetal bovine serum in the absence of tetracycline to allow pgRNA transcription and HBV DNA replication. One day after seeding, cells were left untreated or treated with a serial dilution of testing compounds, ranging from 50 μM to 0.39 μM, for 48 hours. Cells were then lysed by adding into each well of 100 μl lysis buffer containing 10 mM Tris-HCl (pH 7.6), 1 mM EDTA, 100 mM NaCl and 1% NP-40 and incubated at 37° C. for 30 minutes. Half amount (50 μλ) of cell lysate from each well was combined with equal volume of denaturing solution containing 0.5N NaOH and 1.5M NaCl. After 5 minute incubation, 100 μl of neutralization solution (1M Tris-HCl, pH 7.4, 1.5M NaCl) was added into each well. The denatured cell lysates (totally 200 μl) were applied onto Nylon membrane using 96-well dot-blot manifold (Biorad). HBV DNA in the cell lysates were determined by dot-blot hybridization with alpha-^32P-UTP-labelled riboprobe specific for HBV minus strand DNA. The antiviral efficacy of a compound of the disclosure was expressed as the concentration that reduces the amount of HBV DNA by 50% (EC50).

Question: How did the pEC50 turn out when `COC(=O)[C@@H]1CC(F)(F)CN1CC1CNc2ccccc2N1C(=O)Nc1ccc(F)c(Cl)c1` (some centres unmarked) [Entry 100] was run?
Answer: 5.95

Question: With `O=C(Nc1ccc(F)c(Cl)c1)N1c2ccccc2NCC1CN1CCC2(CC1)OCCO2` (centres unmarked) [Entry 103] as the compound, how does the pEC50 read?
Answer: ≤ 5.00

Question: How did the pEC50 turn out when `CS(=O)(=O)N1CCN(CC2CNc3ccccc3N2C(=O)Nc2ccc(F)c(Cl)c2)CC1` (centres unmarked) [Entry 104] was run?
Answer: ≤ 5.00

Question: `CCOC(=O)C1=C(F)CCN(CC2CNc3ccccc3N2C(=O)Nc2ccc(F)c(Cl)c2)C1` (centres unmarked) [Entry 105] was tested. Which pEC50 did it give?
Answer: ≤ 5.00

Question: `CCOC(=O)C1CN(CC2CNc3ccccc3N2C(=O)Nc2ccc(F)c(Cl)c2)CCC1(F)F` (centres unmarked) [Entry 106] was tested. Which pEC50 did it give?
Answer: 5.11

Question: `O=C(O)C1CCCN(CC2CNc3ccccc3N2C(=O)Nc2ccc(F)c(Cl)c2)C1` (centres unmarked) [Entry 107] was tested. Which pEC50 did it give?
Answer: ≤ 5.00

Question: How did the pEC50 turn out when `O=C(Nc1ccc(F)c(Cl)c1)N1c2ccccc2NCC1CN1CCC(F)(F)C(CO)C1` (centres unmarked) [Entry 108] was run?
Answer: 5.66

Question: `O=C(Nc1ccc(F)c(Cl)c1)N1c2ccccc2NCC1CN1CCS(=O)(=O)CC1` (centres unmarked) [Entry 110] was tested. Which pEC50 did it give?
Answer: 5.70

Question: `O=C(Nc1cc(F)c(F)c(F)c1)N1CCN(C(=O)Nc2ccc(F)c(Cl)c2)c2ccccc21` [Entry 111] was tested. Which pEC50 did it give?
Answer: 6.30

Question: How did the pEC50 turn out when `O=C(Nc1ccc(F)c(Cl)c1)N1CCN(C(=O)Nc2cc(Cl)c(F)cc2F)c2ccccc21` [Entry 112] was run?
Answer: 6.54

Question: How did the pEC50 turn out when `O=C(O)C1CN(CC2CNc3ccccc3N2C(=O)Nc2ccc(F)c(Cl)c2)CC(F)(F)C1` (centres unmarked) [Entry 113] was run?
Answer: 6.35

Question: With `Cc1cc(NC(=O)N2CCNc3ccccc32)ccc1F` [Entry 116] as the compound, how does the pEC50 read?
Answer: 6.62

Question: How did the pEC50 turn out when `N#Cc1cc(NC(=O)N2CCNc3ccccc32)ccc1F` [Entry 119] was run?
Answer: 6.28

Question: With `O=C1CCN(C(=O)Nc2ccc(F)c(C(F)(F)F)c2)C2CCCCC12` (centres unmarked) [Entry 120] as the compound, how does the pEC50 read?
Answer: 5.96

Question: How did the pEC50 turn out when `O=C(Nc1ccc(F)c(C(F)(F)F)c1)N1CCNc2ccccc21` [Entry 122] was run?
Answer: 6.49

Question: With `O=C(Nc1ccc(F)c(C(F)F)c1)N1CCNc2ccccc21` [Entry 125] as the compound, how does the pEC50 read?
Answer: 6.72

Question: How did the pEC50 turn out when `O=C1CCN(C(=O)Nc2cccc(Cl)c2)C2CCCCC12` (centres unmarked) [Entry 126] was run?
Answer: 6.70
